Results as given in patent US20090197819A1, “Compositions for improving and repairing skin” (priority 2007, published 2009).

Legend:
[1] = system: skeletal muscle; details: oral administration; cited from earlier work
[2] = system: lymphocytes; details: previously shown by Applicants; cited from earlier work
[3] = system: Fibroblast cell cultures; experiment: Recovery of ATP in cultured fibroblasts after hypoxic stress; format: cell-based; details: fibroblasts at about 80% confluence, six hours hypoxic atmosphere, fresh medium, inspected at 12, 24 and 48 hours; first experiment
Protocol: Based on this information, Applicants believe that the same effect might be shown in cell culture with skin cells. The first skin cell be tested in vitro was the fibroblast, the culture of which is well known. The Coriell Institute for medical research publishes a web site with detailed instructions, the teachings of which are incorporated by reference. (Http:/locus.umdnj.edu/cer/faq/fibro.html.) Fibroblast cell cultures were tested to determine an optimal level of ribose as compared to glucose control.
To determine a protective effect of ribose, test and control plates were grown to about 80% confluence and subjected to a simulated environmental stress, six hours under an hypoxic atmosphere. Following exposure, the medium was aspirated off the culture and fresh medium applied. Cultures were inspected at 12, 24 and 48 hours to determine recovery of ATP to pre-hypoxia levels.

[4] = system: skin; experiment: Preliminary application of ribose to skin without penetrant; format: in vivo; details: topical, no penetrant
Description: The skin is a barrier. Preliminary effects to determine the effect on improving skin by the application of ribose were unsuccessful, leading the Applicants to the realization that ribose may not have penetrated to the basal cells and dermis. To get penetration it is advantageous to provide a penetrant to increase the concentration of active ingredient at the dermis and epidermis. A preferred penetrant is ethanol, which will be incorporated into the composition at a concentration of 0.1 to 15%, most preferably 10% weight to volume. The active ingredient may be at a concentration of from 0.5 to 10%, preferably 1%, weight to volume.

**Q.** For `O=C[C@H](O)[C@H](O)[C@H](O)CO` [D-ribose], which “ATP levels in skeletal muscle” value [1] is on record?
**A.** raises ATP levels

**Q.** What about the “growth of lymphocytes in cell culture” value [2] of the same compound?
**A.** stimulates the growth

**Q.** What about the “recovery of ATP to pre-hypoxia levels (of base ATP levels)” value [3] of the same compound?
**A.** 19%

**Q.** And the “effect on improving skin by the application of ribose” value [4]?
**A.** unsuccessful
